Test results as given in patent EP0126287B1, “Fluorinated compounds having analgesic and antiinflammatory activities” (MEDEA RESEARCH S.r.l., priority 1983, dated 1984).
Read-outs that look alike come from different tables or passages of the source.

Legend:
[1] = test system: writhing induced by phenylquinone administration in Swiss rats; assay: Phenylquinone writhing test, analgesic activity; format: in vivo; details: for No. WRITHINGS M̄ ± ES: control 24.5 ±2.2
Procedure: The analgesic activity of the compounds of the invention was determined according to the writhing test, as inhibitory activity against the writhing induced by phenylquinone administration in Swiss rats (Siegmund et al., Proc. Soc. Exp. Biol. Med. 95, 729, 1957). The analgesic activity of MR 883 was determined in comparison to the one of Diflunisal and Naproxen.

[2] = Acute toxicology: indicative LD50 in the rat; details: in vivo, ip
[3] = test system: carrageenin oedema in the rat paw; assay: Carrageenin oedema test (rat paw), antiinflammatory activity; format: in vivo; details: for Inhibition versus control / AREAS % M ± ES: 50 mg/kg p.o., 10 rats per group; for Inhibition versus control: oedema areas; for AREAS % M ± ES: control 305 ±23.7; for ED50: Rattus norvegicus, carrageenin oedema, oral, groups of 10 rats, dosages of 25.50 and 100 mg/kg
Procedure: The antiinflammatory activity of the compounds of the invention was determined according to the carrageenin oedema test in rats, in comparison with equiponderal dosages of Diflunisal (Rissly, Ness.; Proc. Soc. Exp. Biol. Med., 111, 544-547, 1962).
ED50 of MR 883 and Diflunisal were determined according to the same test. Groups of 10 rats were administered orally with the compounds at dosages of 25.50 and 100 mg/kg.

[4] = Qualitative solubility of the isolated product; format: physicochemical; details: for solubility in bicarbonate solutions: bicarbonate solution
[5] = test system: writhing induced by acetic acid in the rat; assay: Inhibition of writhing induced by acetic acid, analgesic ED50; format: in vivo; details: po
Procedure: The ED50 in the analgesic activity of MR 883, in comparison to Diflunisal, D-prppoxyphene, phenylbutazone and acetylsalicylic acid was determined according to the test of inhibition of writhing induced by acetic acid in the rat (Sofia et al., J. Pharmacol. Expt. Therap. 186, 646, 1973).

rat = details: cited from earlier work
[6] = acetic acid writhing in the rat, per os, read-out: ED50
[7] = dose 50 mg/kg, 10 animals per group

| Compound | LD50 [2] [mg/kg] | Inhibition versus control [3] [%] | AREAS % M ± ES [3] | % Inhibition versus control ([1]; dose 50 mg/kg) [%] | solubility in the usual organic solvents [4] | ED50 [5, 6] [mg/kg] | No. WRITHINGS M̄ ± ES [1, 7] | further results |
| --- | --- | --- | --- | --- | --- | --- | --- | --- |
| COc1ccc2cc([C@H](C)C(=O)O)ccc2c1 [Naproxen, reference compound] |  |  |  |  |  |  |  | % Inhibition versus control ([1]; dose 100 mg/kg): 84%; No. WRITHINGS M̄ ± ES ([1]; dose 100 mg/kg, 10 animals): 4.0 ±1.1 |
| O=C(O)C(Cl)c1ccc(-c2ccc(F)cc2F)cc1 (centres unmarked) [MR 881, 2-Chloro-2-[p-(2",4"-difluorophenyl)phenyl]acetic acid] | 850 | 48.6 | 156.8 ±13.1 | 95 | soluble |  |  | solubility in bicarbonate solutions [4]: soluble; solubility in water [4]: insoluble |
| CCCCC1C(=O)N(c2ccccc2)N(c2ccccc2)C1=O [Phenylbutazone] |  |  |  |  |  | 180 |  |  |
| CC(=O)Oc1ccccc1C(=O)O [Acetylsalicylic acid] |  |  |  |  |  |  |  | ED50 ([5]; Rattus norvegicus): 330 mg/kg |
| O=C(O)C(O)c1ccc(-c2ccc(F)cc2F)cc1 (centres unmarked) [MR 864, 2-Hydroxy-2-[p-(2",4"-difluorophenyl)phenyl]acetic acid] | 850 | 42.7 | 174.7 ±20.7 | 85 |  |  | 3.6 ±1.2 | solubility in cyclohexane and petroleum ether ([4]; cyclohexane, petroleum ether): soluble; solubility in toluene, chloroform, carbon tetrachloride ([4]; toluene, chloroform, carbon tetrachloride): slightly soluble; solubility in water [4]: soluble |
| COC(C(=O)O)c1ccc(-c2ccc(F)cc2F)cc1 (centres unmarked) [MR 883, 2-Methoxy-2-[p-(2^1,4"-difluorophenyl)phenyl]acetic acid] | 2200 | 52.8 | 144.0 ±17.5 | 98 | soluble | 25 |  | ED50 [3]: 145 mg/kg |
| O=C(O)c1cc(-c2ccc(F)cc2F)ccc1O [Diflunisal, reference compound] |  | 59.6 | 123.3 ±10.1 | 82 |  | 45 | 4.3 ±1.6 | ED50 [3]: 234 mg/kg; LD50 p.o. (rat): about 750 mg/kg |
| CCC(=O)O[C@](Cc1ccccc1)(c1ccccc1)[C@H](C)CN(C)C [D-propoxyphene] |  |  |  |  |  |  |  | ED50 ([5]; Rattus norvegicus): 40 mg/kg |
| CCOC(C(=O)O)c1ccc(-c2ccc(F)cc2F)cc1 (centres unmarked) [MR 936, 2-Ethoxy-2-[p-(2",4"-difluorophenyl)phenyl]acetic acid] | 1800 | 45.8 | 139.7 ±15.2 | 76.7 | soluble |  | 5.7 ±0.8 | solubility in bicarbonate solutions [4]: soluble |
